Measurements published in ChEMBL document CHEMBL4507278 (2021).

Tests used:
[1] = molecular target: Serine/threonine-protein kinase PRP4 homolog (Homo sapiens) (UniProt Q13523); conditions: Compound concentration 1000.0 nM
[2] = molecular target: Mitogen-activated protein kinase kinase kinase 7 (Homo sapiens) (UniProt O43318); conditions: Compound concentration 1000.0 nM
[3] = molecular target: Interleukin-1 receptor-associated kinase 1 (Homo sapiens) (UniProt P51617); conditions: Compound concentration 1000.0 nM
[4] = molecular target: Interleukin-1 receptor-associated kinase 3 (Homo sapiens) (UniProt Q9Y616); conditions: Compound concentration 1000.0 nM
[5] = molecular target: Epidermal growth factor receptor (Homo sapiens) (UniProt P00533); conditions: Compound concentration 1000.0 nM
[6] = molecular target: Insulin receptor-related protein (Homo sapiens) (UniProt P14616); conditions: Compound concentration 1000.0 nM
[7] = molecular target: D(1B) dopamine receptor (Homo sapiens) (UniProt P21918); conditions: Compound concentration 10.0 uM
[8] = molecular target: Insulin-like growth factor 1 receptor (Homo sapiens) (UniProt P08069); conditions: Compound concentration 1000.0 nM
[9] = molecular target: Tyrosine-protein kinase JAK2 (Homo sapiens) (UniProt O60674); conditions: Compound concentration 1000.0 nM
[10] = molecular target: Serine/threonine-protein kinase PLK1 (Homo sapiens) (UniProt P53350); conditions: Compound concentration 1000.0 nM
[11] = molecular target: Tyrosine-protein kinase CSK (Homo sapiens) (UniProt P41240); conditions: Compound concentration 1000.0 nM
[12] = molecular target: 3-phosphoinositide-dependent protein kinase 1 (Homo sapiens) (UniProt O15530); conditions: Compound concentration 1000.0 nM
[13] = molecular target: Cyclin-dependent kinase-like 2 (Homo sapiens) (UniProt Q92772); conditions: Compound concentration 1000.0 nM
[14] = molecular target: Dual specificity protein kinase TTK (Homo sapiens) (UniProt P33981); conditions: Compound concentration 1000.0 nM
[15] = molecular target: Phosphatidylinositol 4-phosphate 3-kinase C2 domain-containing subunit beta (Homo sapiens) (UniProt O00750); conditions: Compound concentration 1000.0 nM
[16] = molecular target: Non-receptor tyrosine-protein kinase TYK2 (Homo sapiens) (UniProt P29597); conditions: Compound concentration 1000.0 nM
[17] = molecular target: Mast/stem cell growth factor receptor Kit (Homo sapiens) (UniProt P10721); conditions: Compound concentration 1000.0 nM
[18] = molecular target: Aurora kinase B (Homo sapiens) (UniProt Q96GD4); conditions: Compound concentration 1000.0 nM
[19] = molecular target: Cyclin-dependent kinase-like 1 (Homo sapiens) (UniProt Q00532); conditions: Compound concentration 1000.0 nM
[20] = molecular target: Serine/threonine-protein kinase 36 (Homo sapiens) (UniProt Q9NRP7); conditions: Compound concentration 1000.0 nM
[21] = molecular target: cAMP-dependent protein kinase catalytic subunit beta (Homo sapiens) (UniProt P22694); conditions: Compound concentration 1000.0 nM
[22] = molecular target: Serine/threonine-protein kinase MRCK alpha (Homo sapiens) (UniProt Q5VT25); conditions: Compound concentration 1000.0 nM
[23] = molecular target: Tyrosine-protein kinase Mer (Homo sapiens) (UniProt Q12866); conditions: Compound concentration 1000.0 nM
[24] = molecular target: Casein kinase I isoform alpha-like (Homo sapiens) (UniProt Q8N752); conditions: Compound concentration 1000.0 nM
[25] = molecular target: Phosphatidylinositol 4,5-bisphosphate 3-kinase catalytic subunit delta isoform (Homo sapiens) (UniProt O00329); conditions: Compound concentration 1000.0 nM
[26] = molecular target: Protein kinase C eta type (Homo sapiens) (UniProt P24723); conditions: Compound concentration 1000.0 nM
[27] = molecular target: Dual specificity testis-specific protein kinase 1 (Homo sapiens) (UniProt Q15569); conditions: Compound concentration 1000.0 nM
[28] = molecular target: Serine/threonine-protein kinase Nek3 (Homo sapiens) (UniProt P51956); conditions: Compound concentration 1000.0 nM
[29] = molecular target: T1, Alpha-1D adrenergic receptor (Homo sapiens) (UniProt P25100); conditions: Compound concentration 10.0 uM
T1 sequence (whole entry): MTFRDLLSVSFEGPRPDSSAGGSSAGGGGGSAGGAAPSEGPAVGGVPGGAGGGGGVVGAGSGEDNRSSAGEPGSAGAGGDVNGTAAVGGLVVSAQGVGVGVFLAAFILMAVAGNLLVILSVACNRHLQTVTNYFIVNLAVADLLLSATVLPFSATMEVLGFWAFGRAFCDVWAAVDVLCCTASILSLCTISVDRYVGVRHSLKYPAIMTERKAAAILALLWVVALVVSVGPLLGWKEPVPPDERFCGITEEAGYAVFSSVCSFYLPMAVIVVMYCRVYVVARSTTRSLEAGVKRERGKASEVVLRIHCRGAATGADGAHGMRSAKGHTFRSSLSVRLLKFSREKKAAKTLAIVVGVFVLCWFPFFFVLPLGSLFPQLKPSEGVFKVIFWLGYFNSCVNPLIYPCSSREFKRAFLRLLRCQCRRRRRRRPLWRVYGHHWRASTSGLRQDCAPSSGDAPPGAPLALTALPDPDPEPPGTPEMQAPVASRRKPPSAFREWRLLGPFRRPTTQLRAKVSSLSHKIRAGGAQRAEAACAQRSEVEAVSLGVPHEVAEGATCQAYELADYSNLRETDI

[30] = test system: Mast/stem cell growth factor receptor Kit (Homo sapiens), P10721 [V559D,V654A]; conditions: Compound concentration 1000.0 nM
[31] = test system: Phosphatidylinositol 4,5-bisphosphate 3-kinase catalytic subunit alpha isoform (Homo sapiens), P42336 [H1047L]; conditions: Compound concentration 1000.0 nM
[32] = molecular target: Dual specificity protein kinase CLK3 (Homo sapiens) (UniProt P49761); conditions: Compound concentration 1000.0 nM
[33] = molecular target: 5'-AMP-activated protein kinase catalytic subunit alpha-1 (Homo sapiens) (UniProt Q13131); conditions: Compound concentration 1000.0 nM

Sequence of Mitogen-activated protein kinase kinase kinase 7 (Homo sapiens) (O43318 whole entry): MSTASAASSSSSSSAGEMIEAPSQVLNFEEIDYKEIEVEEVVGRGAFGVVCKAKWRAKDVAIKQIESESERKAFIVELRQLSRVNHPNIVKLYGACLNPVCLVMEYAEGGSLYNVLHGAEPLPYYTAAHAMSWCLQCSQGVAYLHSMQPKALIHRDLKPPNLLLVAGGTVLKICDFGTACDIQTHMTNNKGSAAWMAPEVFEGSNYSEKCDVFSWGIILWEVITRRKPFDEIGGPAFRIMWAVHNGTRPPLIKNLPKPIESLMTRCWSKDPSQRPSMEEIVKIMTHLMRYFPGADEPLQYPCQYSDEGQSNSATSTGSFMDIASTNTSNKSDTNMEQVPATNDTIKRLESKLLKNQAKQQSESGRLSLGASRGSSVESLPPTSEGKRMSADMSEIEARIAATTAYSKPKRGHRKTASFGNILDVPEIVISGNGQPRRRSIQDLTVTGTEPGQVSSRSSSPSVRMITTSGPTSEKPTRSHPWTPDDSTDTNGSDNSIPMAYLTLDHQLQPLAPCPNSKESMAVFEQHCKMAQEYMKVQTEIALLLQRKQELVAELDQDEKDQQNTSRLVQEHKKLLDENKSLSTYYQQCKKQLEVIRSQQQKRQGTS
Sequence of Aurora kinase B (Homo sapiens) (Q96GD4 whole entry): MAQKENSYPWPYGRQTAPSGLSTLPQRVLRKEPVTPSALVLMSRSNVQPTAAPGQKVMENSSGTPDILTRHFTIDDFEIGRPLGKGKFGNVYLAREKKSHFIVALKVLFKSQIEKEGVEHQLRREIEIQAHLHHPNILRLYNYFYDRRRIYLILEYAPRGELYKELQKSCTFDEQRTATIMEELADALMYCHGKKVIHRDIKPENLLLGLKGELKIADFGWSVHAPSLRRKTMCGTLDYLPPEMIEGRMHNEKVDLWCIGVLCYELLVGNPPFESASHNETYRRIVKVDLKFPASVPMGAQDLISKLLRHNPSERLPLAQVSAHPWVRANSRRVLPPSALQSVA
Sequence of Interleukin-1 receptor-associated kinase 1 (Homo sapiens) (P51617 whole entry, looked up): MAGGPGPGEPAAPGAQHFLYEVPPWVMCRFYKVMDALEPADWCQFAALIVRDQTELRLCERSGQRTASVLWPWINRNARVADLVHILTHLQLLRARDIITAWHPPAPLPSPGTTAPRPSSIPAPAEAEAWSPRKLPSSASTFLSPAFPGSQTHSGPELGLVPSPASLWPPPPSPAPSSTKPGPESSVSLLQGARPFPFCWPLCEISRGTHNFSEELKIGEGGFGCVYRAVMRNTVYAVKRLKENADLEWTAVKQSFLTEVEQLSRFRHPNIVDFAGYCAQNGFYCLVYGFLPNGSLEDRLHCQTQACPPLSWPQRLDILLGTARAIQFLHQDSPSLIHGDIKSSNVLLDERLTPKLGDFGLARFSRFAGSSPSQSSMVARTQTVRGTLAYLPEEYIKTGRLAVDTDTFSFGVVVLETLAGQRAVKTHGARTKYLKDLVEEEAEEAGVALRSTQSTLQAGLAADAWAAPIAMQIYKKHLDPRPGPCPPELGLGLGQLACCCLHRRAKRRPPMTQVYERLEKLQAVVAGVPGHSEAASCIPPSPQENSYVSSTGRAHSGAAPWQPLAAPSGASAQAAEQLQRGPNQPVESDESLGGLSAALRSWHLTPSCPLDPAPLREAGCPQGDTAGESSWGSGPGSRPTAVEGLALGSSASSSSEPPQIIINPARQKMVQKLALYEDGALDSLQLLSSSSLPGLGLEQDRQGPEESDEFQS
Sequence of Insulin-like growth factor 1 receptor (Homo sapiens) (P08069 31-736 limits assumed): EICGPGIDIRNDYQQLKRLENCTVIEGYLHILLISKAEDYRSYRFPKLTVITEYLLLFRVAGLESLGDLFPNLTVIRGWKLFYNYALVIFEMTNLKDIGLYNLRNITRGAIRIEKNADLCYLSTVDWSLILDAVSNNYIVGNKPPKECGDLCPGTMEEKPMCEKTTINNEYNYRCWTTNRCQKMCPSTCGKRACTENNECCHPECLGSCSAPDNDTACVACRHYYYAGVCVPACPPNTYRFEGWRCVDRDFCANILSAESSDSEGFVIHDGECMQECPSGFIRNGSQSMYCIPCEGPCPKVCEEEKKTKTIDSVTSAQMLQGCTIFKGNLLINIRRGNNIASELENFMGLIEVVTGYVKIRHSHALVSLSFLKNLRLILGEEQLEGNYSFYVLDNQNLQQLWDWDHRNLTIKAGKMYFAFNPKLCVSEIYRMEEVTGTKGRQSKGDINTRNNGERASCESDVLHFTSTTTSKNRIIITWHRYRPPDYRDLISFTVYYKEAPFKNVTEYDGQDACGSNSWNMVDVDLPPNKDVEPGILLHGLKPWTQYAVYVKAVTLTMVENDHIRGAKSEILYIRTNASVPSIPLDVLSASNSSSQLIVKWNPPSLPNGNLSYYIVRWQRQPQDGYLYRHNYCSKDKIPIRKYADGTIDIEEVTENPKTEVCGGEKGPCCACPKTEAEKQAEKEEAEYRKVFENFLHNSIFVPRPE
Sequence of Insulin-like growth factor 1 receptor (Homo sapiens) (P08069 741-1367 limits assumed): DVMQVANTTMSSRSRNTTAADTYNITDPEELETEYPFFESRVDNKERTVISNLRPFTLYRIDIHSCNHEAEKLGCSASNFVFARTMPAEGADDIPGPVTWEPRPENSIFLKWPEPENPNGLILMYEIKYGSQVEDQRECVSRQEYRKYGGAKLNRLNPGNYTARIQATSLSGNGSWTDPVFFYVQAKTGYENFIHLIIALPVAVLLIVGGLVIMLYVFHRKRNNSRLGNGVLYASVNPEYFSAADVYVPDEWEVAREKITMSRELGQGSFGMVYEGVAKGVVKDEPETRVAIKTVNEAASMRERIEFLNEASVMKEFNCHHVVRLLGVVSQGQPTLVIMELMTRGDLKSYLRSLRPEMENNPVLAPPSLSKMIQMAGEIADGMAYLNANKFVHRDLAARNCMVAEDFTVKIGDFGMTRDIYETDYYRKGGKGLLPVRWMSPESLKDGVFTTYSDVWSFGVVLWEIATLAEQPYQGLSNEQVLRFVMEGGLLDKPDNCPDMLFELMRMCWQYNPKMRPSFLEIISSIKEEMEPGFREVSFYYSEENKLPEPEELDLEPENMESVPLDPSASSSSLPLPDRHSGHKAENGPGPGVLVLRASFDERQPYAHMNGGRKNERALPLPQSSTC
Sequence of Phosphatidylinositol 4-phosphate 3-kinase C2 domain-containing subunit beta (Homo sapiens) (O00750 whole entry, the tested form may be a part): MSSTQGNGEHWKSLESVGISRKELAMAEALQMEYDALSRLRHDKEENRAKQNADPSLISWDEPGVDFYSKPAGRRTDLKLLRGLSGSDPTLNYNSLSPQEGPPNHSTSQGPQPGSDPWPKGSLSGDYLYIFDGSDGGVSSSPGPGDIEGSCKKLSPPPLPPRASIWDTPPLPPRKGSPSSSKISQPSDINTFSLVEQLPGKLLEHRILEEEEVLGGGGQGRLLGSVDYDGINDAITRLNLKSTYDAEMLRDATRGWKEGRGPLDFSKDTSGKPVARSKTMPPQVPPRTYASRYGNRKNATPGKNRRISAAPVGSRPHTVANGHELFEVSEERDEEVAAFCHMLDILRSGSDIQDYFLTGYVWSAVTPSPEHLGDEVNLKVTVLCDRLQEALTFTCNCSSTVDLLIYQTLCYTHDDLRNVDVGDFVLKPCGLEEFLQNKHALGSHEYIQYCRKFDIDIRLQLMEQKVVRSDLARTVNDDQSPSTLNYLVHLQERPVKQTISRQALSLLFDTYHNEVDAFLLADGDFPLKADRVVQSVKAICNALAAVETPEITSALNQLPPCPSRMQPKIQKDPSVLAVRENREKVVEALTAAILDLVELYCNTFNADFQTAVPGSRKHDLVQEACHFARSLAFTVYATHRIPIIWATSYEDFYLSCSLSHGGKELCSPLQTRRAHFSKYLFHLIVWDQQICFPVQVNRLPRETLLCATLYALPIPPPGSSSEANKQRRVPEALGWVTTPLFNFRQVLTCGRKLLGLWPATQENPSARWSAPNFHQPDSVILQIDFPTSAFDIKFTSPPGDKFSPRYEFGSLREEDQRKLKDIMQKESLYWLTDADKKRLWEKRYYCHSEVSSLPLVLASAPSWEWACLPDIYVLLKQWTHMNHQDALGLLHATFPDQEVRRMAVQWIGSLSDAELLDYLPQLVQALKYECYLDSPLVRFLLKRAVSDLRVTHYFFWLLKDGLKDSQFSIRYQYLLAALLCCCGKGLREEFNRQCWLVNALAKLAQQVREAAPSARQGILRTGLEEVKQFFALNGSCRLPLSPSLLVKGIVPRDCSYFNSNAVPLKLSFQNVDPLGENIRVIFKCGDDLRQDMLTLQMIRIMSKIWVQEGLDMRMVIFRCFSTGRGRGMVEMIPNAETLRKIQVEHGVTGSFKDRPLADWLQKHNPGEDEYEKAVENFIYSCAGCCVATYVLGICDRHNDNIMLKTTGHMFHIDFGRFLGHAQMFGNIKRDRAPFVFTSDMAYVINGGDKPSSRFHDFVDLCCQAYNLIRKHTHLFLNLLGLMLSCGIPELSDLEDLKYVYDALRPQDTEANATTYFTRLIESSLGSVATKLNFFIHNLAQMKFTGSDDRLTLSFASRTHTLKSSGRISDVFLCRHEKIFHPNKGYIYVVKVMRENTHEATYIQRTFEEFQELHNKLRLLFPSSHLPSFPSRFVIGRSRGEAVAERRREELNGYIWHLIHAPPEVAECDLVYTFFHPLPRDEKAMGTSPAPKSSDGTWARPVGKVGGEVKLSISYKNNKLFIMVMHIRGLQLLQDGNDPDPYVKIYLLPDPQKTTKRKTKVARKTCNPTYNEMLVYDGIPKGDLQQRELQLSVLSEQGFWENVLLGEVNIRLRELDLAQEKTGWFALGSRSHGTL
Sequence of Cyclin-dependent kinase-like 1 (Homo sapiens) (Q00532 whole entry): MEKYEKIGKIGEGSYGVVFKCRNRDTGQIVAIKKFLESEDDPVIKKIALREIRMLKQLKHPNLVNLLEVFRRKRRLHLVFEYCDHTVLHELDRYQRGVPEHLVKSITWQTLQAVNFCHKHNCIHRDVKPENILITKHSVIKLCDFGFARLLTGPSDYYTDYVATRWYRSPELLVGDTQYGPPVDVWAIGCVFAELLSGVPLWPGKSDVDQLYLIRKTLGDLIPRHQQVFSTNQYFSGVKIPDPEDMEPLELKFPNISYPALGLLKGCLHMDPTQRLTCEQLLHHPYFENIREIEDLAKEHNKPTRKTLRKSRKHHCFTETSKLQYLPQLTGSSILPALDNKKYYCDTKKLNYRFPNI

CS(=O)(=O)NCC[C@H](NC(=O)c1cncc2c1cnn2-c1ccc(F)cc1)c1ccnc(S(C)(=O)=O)c1 [BI 9307]
inactive: residual activity [1] 69% | residual activity [2] 100% | residual activity [3] 100% | residual activity [4] 89% | residual activity [5] 84% | residual activity [6] 100% | inhibition [7] 36% | residual activity [8] 100% | residual activity [9] 100% | residual activity [10] 100% | residual activity [11] 98% | residual activity [12] 100% | residual activity [13] 100% | residual activity [14] 91% | residual activity [15] 78% | residual activity [16] 100% | residual activity [17] 100% | residual activity [18] 100% | residual activity [19] 84% | residual activity [20] 100% | residual activity [21] 100% | residual activity [22] 100% | residual activity [23] 100% | residual activity [24] 94% | residual activity [25] 100% | residual activity [26] 80% | residual activity [27] 100% | residual activity [28] 86% | inhibition [29] -9.49% | residual activity [30] 100% | residual activity [31] 77% | residual activity [32] 99% | residual activity [33] 100%

CS(=O)(=O)c1cc(C2(NC(=O)c3cncc4c3cnn4-c3ccc(F)cc3)CC2)ccn1 [BI 639667]
inactive: residual activity [1] 100% | residual activity [2] 94% | residual activity [3] 87% | residual activity [4] 59% | residual activity [5] 100% | residual activity [6] 65% | inhibition [7] -0.37% | residual activity [8] 100% | residual activity [9] 100% | residual activity [10] 90% | residual activity [11] 95% | residual activity [12] 100% | residual activity [13] 100% | residual activity [14] 90% | residual activity [15] 84% | residual activity [16] 73% | residual activity [17] 100% | residual activity [18] 88% | residual activity [19] 69% | residual activity [20] 100% | residual activity [21] 100% | residual activity [22] 100% | residual activity [23] 100% | residual activity [24] 100% | residual activity [25] 100% | residual activity [26] 100% | residual activity [27] 62% | residual activity [28] 100% | inhibition [29] -7.67% | residual activity [30] 88% | residual activity [31] 100% | residual activity [32] 86% | residual activity [33] 99%
